Source: patent US6653089B2, “Differential treatment of selected parts of a single cell with different fluid components” (President and Fellows of Harvard College, priority 2000, dated 2003)

Assays:
[1] = tested on: BCE cells (actin filaments); assay: Partial treatment of single BCE cells with a membrane-permeable actin disrupting drug in a two-component laminar flow stream; assay type: cell-based, Bovine; settings: for actin cytoskeleton after treatment (phalloidin Alexa 594 stain): about 10 min
Experimental: (§1) Bovine adrenal capillary endothelial (BCE) cells were cultured and harvested as described in D. E. Ingber & J. Folkman, J. Cell Biol., Vol. 109, pp. 317-330, 1989, incorporated herein by reference. In brief, cells were cultured under 10% CO2 on Petri dishes (Falcon) coated with gelatin in DMEM (GIBCO) containing 10% calf serum (CS), 2 mM glutamine, 100 μg/ml streptomycin, 100 μg/ml penicillin, and 1 ng/ml basic fibroblast growth factor (bFGF). Cells were dissociated from culture plates with trypsin/EDTA and washed in DMEM containing 1% wt/vol BSA (BSA/DMEM). These cells were suspended in chemically defined medium (10 μg/ml high density lipoprotein/5 μg/ml transferrin/5 ng/ml bFGF in BSA/DMEM) as described in D. E. Ingber, Proc. Natl. Acad. Sci. USA, Vol. 87, pp. 3579-3583 (1990), incorporated herein by reference, introduced into capillary networks (pretreated with 50 μg/ml fibronectin for 1 hr) from the inlet wells, and incubated in 10% CO2 at 37° C. for 4-6 hr to permit attachment and spreading upon the glass cover slip forming the bottom of the microchannel network. After the above incubation to allow for binding and attachment, non-adherent cells were removed by washing each of the flow channels with media (1% wt/vol. BSA/DMEM) for about 3 min. at a maximum bulk flow velocity of about 0.6 cm/s (Re<1).
Device fabrication and cell culture and attachment of BCE cells was performed as described above in Example 1. Creation and maintenance of flow in the channels and selection and observation of a BCE cell positioned straddling the interface of two components of the flow stream established in the main flow channel was performed in a similar fashion as described previously in Example 1.
In the present example, prior to selective treatment of a portion of a single BCE cell with a membrane-permeable actin disrupting drug, the BCE cells attached to the microfluidic network were uniformly exposed to media containing Mitotracker Green™ FM mitochondrial stain, as described in Example 2, in order to uniformly stain the mitochondria of each of the BCE cells in the microfluidic channels. Subsequent to mitochondrial staining, partial cell treatment with the actin disrupting drug was accomplished by filling right-most well 316 (see FIG. 3A) of the microfluidic channel network with media containing latrunculin A (1 μM in DMEM/10% CS). Similar media, except not including the latrunculin A, was added to inlet wells 312 and 314, and flow was maintained during the experiment as described previously in Example 1. […]

[2] = tested on: BCE cells; assay: Intracellular gradient formation of a membrane permeable nucleic acid binding dye in a single BCE cell; assay type: cell-based, Bovine; settings: 60 μM Syto 9 in DMEM/10% CS over one portion of the cell, dye-free media over the other
Experimental: as §1, with “After the above incubation to allow for binding and attachment, non-adherent cells were removed by washing each of the flow channels with media (1% wt/vol. BSA/DMEM) for about 3 min. at a maximum bulk flow velocity of about 0.6 cm/s (Re<1).” left out
The flowing streams and attached BCEs were visualized utilizing a fluorescence inverted microscope, as illustrated in FIG. 3B. […]

Compound	displacement of mitochondria and nucleus on local actin disruption ([1]; center cell, latrunculin A supplied to right-hand portion only, peripheral cell shape relatively unchanged)	actin cytoskeleton after treatment (phalloidin Alexa 594 stain) ([1]; center cell, only right-hand part exposed to latrunculin A-containing media, 1 μM)	positions of the mitochondria (Mitotracker Green FM stained) ([1]; center cell, right-hand part exposed to 1 μM latrunculin A for 10 min)	actin cytoskeleton after treatment (phalloidin Alexa 594 stain) ([1]; rightmost cell fully exposed to latrunculin A-containing media, 1 μM in DMEM/10% CS)	time until intracellular diffusion reached approximately its steady state value [2]
C/C1=C/C(=O)O[C@@H]2C[C@@H](CC[C@H](C)/C=C\C=C\CC1)O[C@@](O)([C@@H]1CSC(=O)N1)C2 [latrunculin A]	caused the mitochondria and nucleus to shift towards the left	greatest degree of actin disruption evident in its treated, right side portion	have shifted towards the left-hand (untreated) part of the cell	a substantial portion of the actin cytoskeleton appears, in the rightmost cell, to be depolymerized	–
Syto 9	–	–	–	–	about 10 minutes
